Results reported in ChEMBL document CHEMBL3885861, “Open TG-GATES”.

Species: Rattus norvegicus
Assay: Open TG-GATES - Regimen: Daily Repeat
Format: toxicity, organism-based, Sprague-Dawley
Parameters: regimen Daily Repeat, gender Male, age 6 weeks
Details: in vivo, po, 2 mg/kg, route gavage, dose level Low; for APTT / Bas / Eos / Fbg / Hb / Ht / Lym / MCH / MCHC / MCV / Mono / Neu / PT / Plat / RBC / Ret / WBC: tissue Blood; for KIDNEY_TOTAL: tissue Kidney; for LIVER: tissue Liver; for A/G / ALP / ALT / AST / BUN / CRE / Ca / Cl / DBIL / GLC / IP / K / LDH / Na / PL / RALB / TBIL / TC / TG / TP / gamma-GTP: tissue Plasma

## CN(CCOc1ccc(CC2SC(=O)NC2=O)cc1)c1ccccn1.O=C(O)/C=C\C(=O)O (centres undefined) [ROSIGLITAZONE MALEATE]
72 h, time 3 day
  TERMINAL_BW: 243.4 g
  APTT: 15.7 s
  Bas: 0%
  Eos: 1%
  Fbg: 233.4 mg/dL
  Hb: 13.2 g/dL
  Ht: 40.2%
  Lym: 73%
  MCH: 20.7 pg
  MCHC: 32.7%
  MCV: 63.4 fL
  Mono: 7.4%
  Neu: 18.8%
  PT: 11.7 s
  Plat: 133 x10_4/uL
  RBC: 634.8 x10_4/ul
  Ret: 6.7%
  WBC: 88.6 x10_2/uL
  KIDNEY_TOTAL: 0.7 g
  LIVER: 12.2 g
  A/G: 2.1
  ALP: 1105.8 IU/L
  ALT: 36 IU/L
  AST: 64.2 IU/L
  BUN: 15.6 mg/dL
  CRE: 0.2 mg/dL
  Ca: 11.5 mg/dL
  Cl: 104.4 meq/L
  DBIL: 0.01 mg/dL
  GLC: 189.4 mg/dL
  IP: 8 mg/dL
  K: 4.6 meq/L
  LDH: 128.2 IU/L
  Na: 140.8 meq/L
  PL: 152.2 mg/dL
  RALB: 3.9 g/dL
  TBIL: 0.034 mg/dL
  TC: 83 mg/dL
  TG: 88.2 mg/dL
  TP: 5.8 g/dL
  gamma-GTP: 0 IU/L
[…], time 7 day
  TERMINAL_BW: 271.5 g
  APTT: 16.1 s
  Bas: 0%
  Eos: 1%
  Fbg: 246.6 mg/dL
  Hb: 13.3 g/dL
  Ht: 40.4%
  Lym: 77.6%
  MCH: 20.9 pg
  MCHC: 32.9%
  MCV: 63.5 fL
  Mono: 5.2%
  Neu: 16.2%
  PT: 11.5 s
  Plat: 134.4 x10_4/uL
  RBC: 636.8 x10_4/ul
  Ret: 5.1%
  WBC: 102.8 x10_2/uL
  KIDNEY_TOTAL: 0.7 g
  LIVER: 12.8 g
  A/G: 2
  ALP: 1242 IU/L
  ALT: 32.4 IU/L
  AST: 62.2 IU/L
  BUN: 19 mg/dL
  CRE: 0.5 mg/dL
  Ca: 11.4 mg/dL
  Cl: 104.6 meq/L
  DBIL: 0.012 mg/dL
  GLC: 183.4 mg/dL
  IP: 7.2 mg/dL
  K: 4.3 meq/L
  LDH: 118 IU/L
  Na: 140.8 meq/L
  PL: 144.6 mg/dL
  RALB: 3.8 g/dL
  TBIL: 0.034 mg/dL
  TC: 73.6 mg/dL
  TG: 100.6 mg/dL
  TP: 5.7 g/dL
  gamma-GTP: 0.6 IU/L
[…], time 14 day
  TERMINAL_BW: 343.6 g
  APTT: 15.3 s
  Bas: 0%
  Eos: 0.8%
  Fbg: 233.4 mg/dL
  Hb: 13.4 g/dL
  Ht: 40.9%
  Lym: 77.6%
  MCH: 20.2 pg
  MCHC: 32.8%
  MCV: 61.5 fL
  Mono: 5.4%
  Neu: 16.2%
  PT: 11.7 s
  Plat: 116.6 x10_4/uL
  RBC: 666 x10_4/ul
  Ret: 3.8%
  WBC: 109.2 x10_2/uL
  KIDNEY_TOTAL: 0.8 g
  LIVER: 15.1 g
  A/G: 2.1
  ALP: 1340.2 IU/L
  ALT: 35.2 IU/L
  AST: 64.8 IU/L
  BUN: 18 mg/dL
  CRE: 0.4 mg/dL
  Ca: 11.2 mg/dL
  Cl: 105.6 meq/L
  DBIL: 0.01 mg/dL
  GLC: 189.8 mg/dL
  IP: 7.8 mg/dL
  K: 4.4 meq/L
  LDH: 92.2 IU/L
  Na: 143.2 meq/L
  PL: 142.2 mg/dL
  RALB: 3.8 g/dL
  TBIL: 0.032 mg/dL
  TC: 70.4 mg/dL
  TG: 110 mg/dL
  TP: 5.7 g/dL
  gamma-GTP: 1 IU/L
[…], time 28 day
  TERMINAL_BW: 425.3 g
  APTT: 15.7 s
  Bas: 0%
  Eos: 1%
  Fbg: 236.8 mg/dL
  Hb: 14.4 g/dL
  Ht: 44%
  Lym: 83.2%
  MCH: 18.7 pg
  MCHC: 32.7%
  MCV: 57.2 fL
  Mono: 3.8%
  Neu: 12%
  PT: 11.9 s
  Plat: 108.5 x10_4/uL
  RBC: 769.2 x10_4/ul
  Ret: 2.2%
  WBC: 93.8 x10_2/uL
  KIDNEY_TOTAL: 0.7 g
  LIVER: 16.8 g
  A/G: 2
  ALP: 1172.5 IU/L
  ALT: 34 IU/L
  AST: 62.8 IU/L
  BUN: 18.2 mg/dL
  CRE: 0.4 mg/dL
  Ca: 10.6 mg/dL
  Cl: 105 meq/L
  DBIL: 0.01 mg/dL
  GLC: 185.2 mg/dL
  IP: 6.4 mg/dL
  K: 4.2 meq/L
  LDH: 90.2 IU/L
  Na: 141.2 meq/L
  PL: 119 mg/dL
  RALB: 3.9 g/dL
  TBIL: 0.035 mg/dL
  TC: 54.8 mg/dL
  TG: 126.5 mg/dL
  TP: 5.9 g/dL
  gamma-GTP: 0 IU/L
